Test results as given in US20260183399A1, “METHOD FOR MODULATING KINASE ACTIVITY AND USE THEREOF” (CENTER FOR EXCELLENCE IN MOLECULAR CELL SCIENCE, CHINESE …, priority 2022, published 2026).

Columns and labels:
LKB1 kinase = biological target: T1, LKB1 kinase (Homo sapiens, UniProt Q15831); experiment: In vitro kinase experiment with LKB1 kinase (excluding STRAD1 and MO25) and His-AMPK α1; format: biochemical; details: metabolite 100 μM; FIG. 1J
T1 construct: the general method says FLAG-LKB1 instead) (N); made in house; host or cells: HEK293T (293T) cells, transfected; immunoprecipitation
T1 sequence (Q15831 1-433): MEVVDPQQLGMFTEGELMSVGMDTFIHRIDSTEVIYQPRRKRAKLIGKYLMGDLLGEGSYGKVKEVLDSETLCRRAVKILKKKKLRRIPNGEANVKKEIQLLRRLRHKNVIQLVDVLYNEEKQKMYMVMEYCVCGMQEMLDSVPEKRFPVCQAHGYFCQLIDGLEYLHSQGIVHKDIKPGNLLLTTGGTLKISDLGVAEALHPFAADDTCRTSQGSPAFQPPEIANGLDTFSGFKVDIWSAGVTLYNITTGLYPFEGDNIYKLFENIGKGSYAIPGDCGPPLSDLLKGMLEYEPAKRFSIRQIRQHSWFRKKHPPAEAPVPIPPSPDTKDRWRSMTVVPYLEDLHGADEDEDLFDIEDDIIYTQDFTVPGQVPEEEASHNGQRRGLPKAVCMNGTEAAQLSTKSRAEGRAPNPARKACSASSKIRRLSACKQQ
Experimental: (§1) The final reaction system for kinase experiment was: 50 mM Tris HCl, 10 mM MgCl2, 1 mM DTT, and 100 μM ATP. HEK293T cells were co-transfected with equal amounts of GST-LKB1, FLAG-STRAD, MYC-MO25 plasmids or solely transfected with FLAG-LKB1 plasmid. The cells were collected, processed for immunoprecipitation using GST beads or FLAG beads, washed three times with cell lysis buffer containing NP-40, and washed twice with kinase reaction buffer. The His-AMPK protein was induced and purified using E. coli BL21 competent cells. The kinase was incubated with metabolites at 100 μM at room temperature for 15 minutes before reaction, then added with reaction buffer and His-AMPK protein, and reacted at […] for 30 minutes. The phosphorylation of AMPK protein was detected by Western blot.
The final reaction system for the kinase experiment was 50 mM Tris-HCl, 10 mM MgCl2, 1 mM DTT, and 100 μM ATP. […] The kinase complex was pre-incubated with metabolites at room temperature for 15 minutes before reaction. Then the reaction buffer and His-AMPK protein were added, and reacted at 37° C. for 30 minutes. The phosphorylation of AMPK protein was detected by Western blot.

[1] = tested on: AMPK α-catalytic subunit phosphorylation in 293T cells; experiment: Metabolite treatment of glucose-starved 293T cells, Western blot of AMPK phosphorylation; format: cell-based; details: glucose starvation 2 hours
Experimental: Cells were subjected to glucose starvation treatment using glucose free culture medium for 2 hours. The corresponding metabolites were added to the culture medium according to the instructions shown in FIG. 1C and FIG. 1D, so that their concentration in the culture medium reached the labeled level, if there was no labeling, the concentration of metabolites in the culture medium was […]. After treatment, cells were collected to prepare lysis buffer, and the changes in specific proteins and phosphorylation of specific sites were detected by Western blot.
When the expression and function of these metabolic enzymes are inhibited, their corresponding products are decreased. Therefore, we speculate that there may be a mechanism by which AMPK is regulated by metabolite molecules in the glycolytic metabolic pathway, and the activation level of AMPK is related to metabolite content. To verify this hypothesis, we added different doses of exogenous 3-phosphoglycerate (3-PG) to 293T cells subjected to glucose starvation treatment (activation of AMPK signaling pathway). […] After treatment, cells were collected to prepare lysate, and the changes in specific proteins and the changes in phosphorylation sites of AMPK α-catalytic subunit were detected by Western blot.

[2] = biological target: T2, LKB1-STRAD1-MO25 kinase complex (Homo sapiens, UniProt Q15831); experiment: In vitro kinase experiment with LKB1 kinase complex and His-AMPK α1; format: biochemical
T2 construct: GST (N); made in house; host or cells: HEK293T (293T) cells, co-transfected
T2 sequence (Q15831 1-433): T1 sequence (Q15831 1-433)
T2 sequence (Q7RTN6 1-431 partner): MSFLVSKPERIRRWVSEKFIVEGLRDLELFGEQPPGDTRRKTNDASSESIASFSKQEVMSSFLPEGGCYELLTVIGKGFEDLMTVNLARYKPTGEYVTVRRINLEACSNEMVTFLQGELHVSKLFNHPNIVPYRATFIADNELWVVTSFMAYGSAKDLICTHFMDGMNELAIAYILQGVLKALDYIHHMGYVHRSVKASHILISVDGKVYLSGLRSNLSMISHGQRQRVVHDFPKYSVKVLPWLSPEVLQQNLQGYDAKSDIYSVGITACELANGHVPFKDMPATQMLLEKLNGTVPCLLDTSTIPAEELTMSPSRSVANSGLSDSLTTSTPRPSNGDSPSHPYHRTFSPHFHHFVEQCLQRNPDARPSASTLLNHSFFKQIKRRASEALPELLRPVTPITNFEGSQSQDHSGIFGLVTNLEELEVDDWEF
T2 sequence (Q9Y376 1-341 partner): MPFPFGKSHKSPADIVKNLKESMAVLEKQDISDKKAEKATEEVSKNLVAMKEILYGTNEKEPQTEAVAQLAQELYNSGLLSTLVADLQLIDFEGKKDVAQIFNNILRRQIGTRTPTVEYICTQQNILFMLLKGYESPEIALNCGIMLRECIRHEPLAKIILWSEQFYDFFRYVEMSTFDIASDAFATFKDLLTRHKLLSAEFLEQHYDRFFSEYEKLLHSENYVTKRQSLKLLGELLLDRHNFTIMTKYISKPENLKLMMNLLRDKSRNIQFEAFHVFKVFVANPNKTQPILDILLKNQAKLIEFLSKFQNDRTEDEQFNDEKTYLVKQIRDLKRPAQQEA
Experimental: as §1
Given that LKB1 is a key upstream kinase that phosphorylates and activates the AMPK a subunit, we speculate that the aforementioned metabolites may affect the phosphorylation activation of AMPK a subunit by LKB1 kinase or LKB1 kinase complex. To verify this hypothesis, GST-LKB1, FLAG-STRAD1, and MYC-MO25 were co-transfected into 293T cells (2 μg of each expression plasmid, and transfected into about 7×10^6 cells). After 48 hours, cells were collected and lysed, and then the LKB1-STRAD1-MO25 kinase complex was subjected to glutathione-agarose bead affinity purification, and co-incubated with the recombinant His-AMPK α1 subunit expressed in E. coli for in vitro kinase experiments. The final reaction system for kinase experiment was: 50 mM Tris HCl, 10 mM MgCl2, 1 mM DTT, 100 μM ATP. At the same time, metabolites such as 3-phosphoglyceraldehyde (GAP) or 3-phosphoglycerate (3-PG) were added to 100 μM according to the diagram (as shown in FIG. 1H), or to a concentration of 50-400 μM as shown in the diagram (as shown in FIG. 1I). The kinase complex was pre-incubated with metabolites at room temperature for 15 minutes before reaction. Then the reaction buffer and His-AMPK protein were added, and reacted at 37° C. for 30 minutes. The phosphorylation of AMPK protein was detected by Western blot.

[3] = tested on: AMPK pathway (AMPK α-catalytic subunit and ACC1 phosphorylation) in HeLa and 293T cells; experiment: S33 treatment of HeLa and 293T cells, Western blot of AMPK pathway; format: cell-based; details: 2, 5 and 10 μM, 2 hours, dose-dependent, FIG. 1G
Experimental: In order to investigate the regulatory effect of PGK1 inhibition on AMPK pathway, different concentrations of S33 (2, 5, and 10 μM, respectively) were added to the culture supernatants of HeLa and 293T cells, and treated for 2 hours. Cell lysate was collected and the changes in specific proteins and in AMPK α-catalytic subunit phosphorylation sites, as well as the phosphorylation of the classical substrate ACC1, downstream of the AMPK pathway, were detected by western blot.

[4] = biological target: T3, recombinant human PGK1 protein (Homo sapiens, UniProt P00558); experiment: In vitro enzyme activity of PGK1 (ATP detection kit, IC50 inhibition curve); format: biochemical; details: S33 0, 1, 3, 5, 7, 10, 30 μM; 37° C. for 25 minutes; FIG. 1F
T3 construct: made in house; host or cells: Escherichia coli
T3 sequence (P00558 1-417): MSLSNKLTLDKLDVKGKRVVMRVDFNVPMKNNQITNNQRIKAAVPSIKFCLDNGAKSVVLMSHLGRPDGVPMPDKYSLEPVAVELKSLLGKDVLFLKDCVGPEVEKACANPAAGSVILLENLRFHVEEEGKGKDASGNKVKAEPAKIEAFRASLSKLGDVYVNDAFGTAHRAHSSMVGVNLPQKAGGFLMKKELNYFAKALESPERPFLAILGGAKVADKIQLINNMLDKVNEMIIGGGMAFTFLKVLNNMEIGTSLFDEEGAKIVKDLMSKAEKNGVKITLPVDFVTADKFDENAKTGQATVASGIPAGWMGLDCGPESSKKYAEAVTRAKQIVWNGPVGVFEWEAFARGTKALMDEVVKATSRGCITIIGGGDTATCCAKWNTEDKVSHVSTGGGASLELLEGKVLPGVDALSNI
Experimental: A substrate buffer mixture with a final concentration of 10 mM KH2PO4, pH7.0, 2 mM GAP, 0.6 mM β-NAD, 0.4 mM ADP, 10 mM MgSO4, 200 mM Glycine, and 0.01 μg/μL GAPDH was prepared. The purified hPGK1 recombinant protein was diluted to 0.2 ng/μL. Inhibitors were added to the protein and a concentration gradient was set up. Each reaction was added with 100 μl of substrate and a mixture of 100 μl hPGK1 protein and inhibitor, and reacted at 37° C. for 25 minutes. After centrifuged at 10000 rpm for 10 minutes at 4° C., 100 μl of supernatant was taken. In the ATP detection kit (Beyotime S0026), the ATP detection solution was diluted with ATP detection diluent at a ratio of 1:10. In a 96 well blank plate, each well was added with 100 μl of diluted detection solution, and let it stand at room temperature for 5 minutes, added with 100 μl of supernatant from enzyme activity reaction, and reacted for 5 seconds, and a microplate reader was used to read the fluorescence value. The relative enzyme activity was calculated based on fluorescence values and IC50 values were calculated using GraphPad nonlinear regression fitting.
The compound (S33, patent number: ZL201610826187. X) reported in the previous patent is a PGK1 inhibitor (FIG. 1E), and we determined the inhibitory activity of compound S33 on PGK1. […]

SMILES	phosphorylation of AMPK α1 by LKB1 kinase (LKB1 kinase)	phosphorylation of AMPK α1 by LKB1 kinase complex ([2]; metabolite 100 μM, FIG. 1H)	other results
O=C(COP(=O)(O)O)[C@@H](O)[C@H](O)[C@H](O)COP(=O)(O)O [1,6-fructose diphosphate]	had no such effect	–	–
O=C(O)[C@@H](CO)OP(=O)(O)O [2-phosphoglycerate]	significantly inhibit	–	AMPK α-catalytic subunit phosphorylation signaling ([1]; metabolite 200 μM, FIG. 1D): inhibitory effects
O=CC(O)COP(=O)(O)O (stereo not drawn) [3-phosphoglyceraldehyde]	had no such effect	had no such effect	–
O=C(O)[C@H](O)COP(=O)(O)O [3-phosphoglycerate]	significantly inhibit	strongly inhibited	phosphorylation of AMPK α1 by LKB1 kinase complex ([2]; metabolite 50-400 μM, FIG. 1I): inhibits the phosphorylation of AMPK α1 by LKB1 kinase complex in a dose-dependent manner; intracellular AMPK α-catalytic subunit phosphorylation signaling ([1]; metabolite 100-800 μM, FIG. 1C): significantly inhibited intracellular AMPK α-catalytic subunit phosphorylation signaling in a dose-dependent manner
COc1cc2nc(N3CCC(N(C)C(=O)C4CCCO4)CC3)nc(N3CCOCC3)c2cc1Cl (stereo not drawn) [S33]	–	–	ACC1 phosphorylation [3]: upregulate; AMPK α-catalytic subunit phosphorylation [3]: upregulate; inhibitory activity of compound on PGK1 [4]: effective inhibitor of PGK1
